These results are taken from patent US6576593B2, “Synergistic herbicidal compositions comprising herbicides from the benzoylcyclohexanedione group for use in maize corps” (Aventis CropScience GmbH, priority 2001, dated 2003).

Test [1] relates to Ipomea laputifolia (IPOMEA). As to the kind of experiment: Herbicidal activity of A5, herbicides (B) and their combinations, visual scoring, against IPOMEA. In kind it is in vivo. The method, then: (§1) The herbicidal efficacy of the active ingredients or active ingredient mixtures was scored visually by comparing the treated plots with untreated control plots. The damage and development of all aerial plant parts was recorded. […] The score figures of in each case 4 plots were averaged. Maize plants were grown in the open on plots of from 5 to 10 m^2 in size on different soils and under various climatic conditions, the natural presence of harmful plants or seeds thereof in the soil being exploited for the experiments. […] The active ingredient or active ingredient combinations were applied post-emergence as WG, WP or EC formulations. After 2 to 8 weeks, the plants were scored visually in comparison with an untreated comparison group. […] Moreover, the herbicidal activities of the compositions according to the invention exceed the expected values calculated using Colby's formula. In contrast, the maize plants were left unharmed or virtually unharmed as a consequence of the treatment. When applying the combinations according to the invention, herbicidal effects are frequently observed on a harmful plant species which exceed the formal total of the effects of the herbicides present when these are applied by themselves. Alternatively, it is observed in some cases that a lower application rate is required for the herbicide combination in order to achieve the same effect on a harmful plant species in comparison with the individual products. […] The biological examples listed in the tables hereinbelow relate to the herbicidal activity of combinations according to the invention of the following herbicides against the harmful plants Ipomea laputifolia (IPOMEA) and Avena fatua (AVENA): […]

A further test concerns Avena fatua (AVENA). As to the kind of experiment: Herbicidal activity of A5, herbicides (B) and their combinations, visual scoring, against AVEFA. In kind it is in vivo. As to the method:
as §1

As for `CC(C)N(C(=O)COc1nnc(C(F)(F)F)s1)c1ccc(F)cc1` [Compound B1.4, flufenacet], the pest or weed control at 373 g/ha in test [1] (Dosage 373 g ai/ha, read-out: Activity against IPOMEA found) was 25%; in the test with Avena fatua (AVENA) (Avena fatua, Dosage 373 g ai/ha, read-out: Activity against AVEFA found), 50%.
`CCc1cccc(C)c1N(C(=O)CCl)C(C)COC` (stereo not drawn) [Compound B1.5, metolachlor]: the pest or weed control at 960 g/ha in test [1] (Dosage 960 g ai/ha, read-out: Activity against IPOMEA found) amounted to 13%; with Avena fatua (AVENA) (Avena fatua, Dosage 960 g ai/ha, read-out: Activity against AVEFA found), 20%.
Consider `CCNc1nc(Cl)nc(NC(C)C)n1` [Compound B2.1, atrazine], for which the pest or weed control at 540 g/ha in test [1] (Dosage 540 g ai/ha, read-out: Activity against IPOMEA found) was 25%; in the test on Avena fatua (AVENA) (Avena fatua, Dosage 540 g ai/ha, read-out: Activity against AVEFA found) it was 50%.
On to `N#Cc1cc(Br)c(O)c(Br)c1` [Compound B2.2, bromoxynil], for which the pest or weed control at 140 g/ha was found to be 25% in test [1] (Dosage 140 g ai/ha, read-out: Activity against IPOMEA found) and 20% with Avena fatua (AVENA) (Avena fatua, Dosage 140 g ai/ha, read-out: Activity against AVEFA found).
For `COc1c(Cl)ccc(Cl)c1C(=O)O` [Compound B4.1, dicamba], the pest or weed control at 80 g/ha in test [1] (Dosage 80 g ai/ha, read-out: Activity against IPOMEA found) was 25%; in the test on Avena fatua (AVENA) (Avena fatua, Dosage 80 g ai/ha, read-out: Activity against AVEFA found), 10%.
As to `CCc1cnc(C2=NC(C)(C(C)C)C(=O)N2)c(C(=O)O)c1` (stereo not drawn) [Compound B5.6, imazethapyr], the pest or weed control at 30 g/ha was 25% in test [1] (Dosage 30 g ai/ha, read-out: Activity against IPOMEA found) and 10% in the test on Avena fatua (AVENA) (Avena fatua, Dosage 30 g ai/ha, read-out: Activity against AVEFA found).
`COC(=O)c1ccc(I)cc1S(=O)(=O)[N-]C(=O)Nc1nc(C)nc(OC)n1.[Na+]` [Compound B5.7, iodosulfuron-methyl-sodium]: the “Activity against IPOMEA found” value in test [1] (Dosage 1 g ai/ha) is listed as 20%. Moreover, the “Activity against AVEFA found” value with Avena fatua (AVENA) (Dosage 1 g ai/ha) came to 30%.
`COc1cc(OC)nc(NC(=O)NS(=O)(=O)c2ncccc2C(=O)N(C)C)n1` [Compound B5.9, nicosulfuron]: the pest or weed control at 15 g/ha in test [1] (Dosage 15 g ai/ha, read-out: Activity against IPOMEA found) was found to be 20%; in the test on Avena fatua (AVENA) (Avena fatua, Dosage 15 g ai/ha, read-out: Activity against AVEFA found), 40%.
As for `CCC(CC)Nc1c([N+](=O)[O-])cc(C)c(C)c1[N+](=O)[O-]` [Compound B7.1, pendimethalin], the pest or weed control at 840 g/ha came out at 40% in test [1] (Dosage 840 g ai/ha, read-out: Activity against IPOMEA found) and 10% with Avena fatua (AVENA) (Avena fatua, Dosage 840 g ai/ha, read-out: Activity against AVEFA found).
